Results on one molecule are retold here after patent publication US20140329766A1, “Prophylactic Compositions for Management of Microbial Infections in Patients with Brain Injury” (UTI LIMITED PARTNERSHIP, priority 2011, published 2014).

One assay concerns post-stroke infections. Nature of the assay: Bacteriological analysis (CFU) of blood, lungs, liver and spleen after MCAO. It is filed as in vivo, mice. The settings on record: post-ischemic mice 24 h after MCAO; α-GalCer 2 μg/mouse i.v. 2 h after MCAO (FIGS. 44A-44D). The method, then:
Mice underwent the mid-cerebral artery occlusion (MCAO) model of cerebral ischemia-reperfusion injury as previously described (Connolly, Jr. et al., 1996; Wong et al., 2008). Male mice of 8-12 weeks old were anesthetized by intraperitoneal injection of a mixture of 10 mg/kg xylazine hydrochloride (MTC Pharmaceuticals, Cambridge, ON) and 200 mg/kg ketamine hydrochloride (Rogar/STB, London, ON). Body temperature was maintained at 37° C. using a heating pad and temperature regulator with rectal probe. Mice were randomly divided into 2 groups: (i) sham-operated, and (ii) MCAO-operated. All surgical instruments were sterilized before the surgery. Before any incision, the area was swabbed with ethanol. To induce MCAO, a 10-mm incision was made on the right-hand side of the neck. Then, the common carotid artery, external carotid artery, and internal carotid artery were dissected free. The external carotid artery was further dissected distally, then coagulated and cut to serve as a stump. After applying temporary clamps at the common carotid artery and internal carotid artery, a monofilament with a silicon coating diameter of 0.21-0.23 mm (Doccol Corporation, Redlands, Calif., USA) was inserted into the stump of the external carotid artery. The monofilament then advanced a defined distance (12 mm) so that the distal end of the monofilament came to rest across the origin of the MCA. The stump of external carotid artery was tied off. The wound on the neck of the mouse was sutured and the mouse was then transferred onto a heat pad to maintain its body temperature at 37° C. After 30 mins of occlusion, the monofilament was withdrawn to allow reperfusion to occur. The animal then recovered from the anaesthesia. Rehydration of the mice was performed every 4 h with a subcutaneous injection of electrolytes and glucose. Food pellets softened with water were placed in the cage after surgery as the mice recovered, and access to water was provided. Sham-operated animals were subjected to the initial anaesthetic and neck incision only. The animals were then allowed to recover from anaesthetic. All animals were put onto a 37° C. heat pad, post-surgery, to recover from anaesthesia until euthanized.
The anaesthetized mice from Example 1 were washed with 70% ethanol under sterile conditions. Blood was collected by cardiac puncture. The lungs, liver and spleen were removed after thoracotomy and homogenized. For determination of colony forming units (CFU), 10 μl of tissue homogenate or blood was serially diluted, plated onto brain heart infusion (BHI) agar plates supplemented with 5% sheep blood (Daylnn Biologicals, Alberta, Canada), incubated at 37° C. for 18 h, and bacterial colonies were counted.
The anaesthetized mice from Example 7 were washed with 70% ethanol under sterile conditions. Blood was collected by cardiac puncture. The lungs, liver and spleen were removed after thoracotomy and homogenized. For determination of colony forming units (CFU), 10 μl of tissue homogenate or blood was serially diluted, plated onto brain heart infusion (BHI) agar plates supplemented with 5% sheep blood (Daylnn Biologicals, Alberta, Canada), incubated at 37° C. for 18 h, and bacterial colonies were counted.

The next assay concerns IFNγ. Nature of the assay: Serum cytokine IFNγ level in peripheral blood (Luminex). It counts as in vivo. The settings on record: post-ischemic mice 24 h after MCAO; α-GalCer 2 μg/mouse i.v. 2 h after MCAO (FIG. 43A). As for the experimental part: Levels of the cytokine IFNγ present in peripheral blood were determined by collecting blood samples by cardiac puncture, which were then allowed to clot at room temperature for at least 30 mins. The samples were then centrifuged at 400×g for 10 mins for the retrieval of serum. The serum samples were analyzed for the cytokine IFNγ by using a multiplex mouse cytokine/chemokine kit, and a Luminex 200 apparatus according to manufacturer's instructions. The data were analyzed with the StarStation V.2.3 software from Applied Cytometry Systems (UK).

Entries after “also recorded” stand apart in the source; their conditions may differ.

For `CCCCCCCCCCCCCCCCCCCCCCCCCCC(=O)N[C@@H](COC1OC(CO)C(O)C(O)C1O)[C@H](O)[C@H](O)CCCCCCCCCCCCCC` (stereo partly drawn) [α-GalCer, α-galactosylceramide], the “infections (bacterial loads in peripheral blood, lungs, livers, spleens)” value in the assay with post-stroke infections was “reduced; also recorded: suppressed the occurrence of microbial infections”. Further, in the assay on IFNγ, the “systemic levels of endogenous IFN-γ” value is given as “significantly increased”.
